According to patent US12251373B2, “Compounds and methods of treating retinal degeneration” (CASE WESTERN RESERVE UNIVERSITY, priority 2017, dated 2025):

Experiments:
Abca4−/−Rdh8−/− mice = assay: Bright light-induced retinal degeneration; assay type: in vivo, mouse; conditions: 50 or 200 mg kg−1 bw i.p. 30 min before 10,000 lux for 30 min; SD-OCT and HE seven days later
Method: Abca4^−/−Rdh8^−/−42 mice with a 129Sv/Ev or C57BL/6 mixed background were used for light-induced retinal degeneration assays. […] Male and female C57BL/6 mice (Jackson Laboratory, Bar Harbor, ME) at six weeks of age were used to test the effects of YC-001 treatment on the retinoid cycle and bw as well as to determine parenterally administrated YC-001 enter the eyes. YC-001 was dissolved in DMSO at 80-160 mg mL^−1, and the solution was provided to mice by i.p. injection. All mice were housed and maintained in a 12 h light (≤10 lux)/12 h dark cycle in the Animal Resource Center at the School of Medicine, CWRU. […]
Retinal degeneration was initiated by exposing Abca4^−/−Rdh8^−/− mice for 30 min to white light with an intensity of 10,000 lux (150-W spiral lamp, Hampton Bay, Home Depot, Atlanta, GA USA). […] Retinal structures were analyzed by SD-OCT seven days after bright light exposure. […]
To assess the effect of YC-001 treatment on Abca4^−/−Rdh8^−/− mice following bright light-induced retinal degeneration, we performed ultrahigh-resolution SD-OCT (Bioptigen, Morrisville, NC) for in vivo imaging of mouse retinas. […] To measure changes to photoreceptors in the retinas challenged with bright light and assess the effect of YC-001 on retinal protection, the thickness of the ONL was measured along the scanned SD-OCT image at 8 points from the nasal to temporal end of the retina. […]

[1] = Pharmacokinetics of YC-001 in mouse plasma; assay type: in vivo
Method: C57BL/6J mice ranging from 8 to 12 weeks of age were purchased from Jackson Labs. For administration, YC-001 was dissolved in DMSO at 160 mg mL^−1. To obtain the blood clearance curve for YC-001, each animal was treated by intraperitoneal injection of YC-001 at 200 mg kg^−1 bw. After administration, blood was collected at 5, 10, 15, 20, 30, 45, 60 and 90 min from the orbital sinus and dropped into K2EDTA blood collection tubes (FisherScientific). Mice were anesthetized with a ketamine/xylazine cocktail two min before blood collection. The blood samples were then incubated at 4° C. for 2 h before centrifugation at 1,800×g for 20 min to collect the supernatant that was the plasma. Plasma was mixed with twice the volume of methanol and then stored at −80° C. YC-001 was extracted from the samples (300 to 600 μL) with 0.6 mL chloroform. The chloroform fraction was collected, dried, and the extracted organic compounds were dissolved in 0.25 mL of methanol. One hundred-μL of each sample was injected onto an Eclipse XDB-C18 column (4.6×150 mm, 5 μm) and YC-001 was detected and quantified as described in the section Metabolic stability of YC-001.

## O=C1OCC(c2ccc(Cl)s2)=C1c1cccs1 [YC-001]
Abca4−/−Rdh8−/− mice
  protection of the ONL from light-induced damage: dose-dependent protection of the ONL
[1]; 0.693/T1/2
  elimination rate constant (Ke): 0.0201 min⁻¹
[1]; Dose/C0
  volume of distribution (Vd): 27.5 L kg−1 bw
[1]; Ke×Vd
  Clearance: 0.552 L min−1 kg−1 bw
